BindingDB's records for doi:10.1111/j.1476-5381.1995.tb15923.x (Zeneca Pharmaceuticals, 1995)

Target: Adenosine receptor A2a (Rattus norvegicus, UniProt P30543)
Sequence (P30543 whole entry): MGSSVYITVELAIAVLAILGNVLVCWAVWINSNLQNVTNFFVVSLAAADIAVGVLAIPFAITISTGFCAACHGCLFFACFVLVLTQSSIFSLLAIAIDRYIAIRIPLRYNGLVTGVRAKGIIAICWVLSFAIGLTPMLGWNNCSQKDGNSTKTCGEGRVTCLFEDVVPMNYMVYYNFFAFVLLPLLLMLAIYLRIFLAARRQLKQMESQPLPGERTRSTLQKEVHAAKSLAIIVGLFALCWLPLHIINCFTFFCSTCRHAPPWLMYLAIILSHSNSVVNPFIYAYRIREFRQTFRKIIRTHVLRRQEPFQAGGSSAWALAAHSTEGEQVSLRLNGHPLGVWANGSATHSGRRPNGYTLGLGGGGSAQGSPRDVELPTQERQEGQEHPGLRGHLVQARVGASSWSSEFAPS

Compound | Ki
Cn1c(=O)c2[nH]c(-c3ccccc3)nc2n(C)c1=O [1,3-Dimethyl-8-phenyl-3,9-dihydro-purine-2,6-dione] | > 10 µM
Cn1c(=O)c2[nH]c(-c3ccc(S(=O)(=O)O)cc3)nc2n(C)c1=O [4-(1,3-Dimethyl-2,6-dioxo-2,3,6,7-tetrahydro-1H-purin-8-yl)-benzenesulfonic acid] | > 10 µM
